# How the values were obtained:
# PANC-1 cells = assay: CaspaseGlo 3/7 apoptosis assay, PANC-1; format: cell-based, human; settings: 72 h
# Description: (§1) 6 Effect of small-molecule modulators on gemcitabine-induced apoptosis and tumor growth of PDAC cells. […] After 2 h, gemcitabine (GEM) was added at increasing concentrations (10 and 25 nM) or not (−) for another incubation of 72 h. Subsequently, the luminescence-based caspase3/7 assay was performed. The activity of caspase 3/7 in treated cells was normalized to the activity measured in untreated cells (dark gray bar), which was set to 1 (mean SD, n = 6 for PANC-1 and n = 4 for PaTu8988T; *: p ≤ 0.05, **: p ≤ 0.01, ***: p ≤ 0.001, using the student t-test). […] After 24 h, gemcitabine (GEM, 1 μM) was added (+) or not (−) for another incubation of 48 h. Subsequently, the apoptotic cell fraction was quantified in % by flow cytometry using FITC-labeled Annexin V (AV) and propidium iodide (PI) staining (in B: mean ± SD, n = 6 for PANC-1 and n = 5 for PaTu8988T; **: p ≤ 0.01, ***: p ≤ 0.001, ****: p ≤ 0.0001, using the student t-test). […] Viable cells are AV/PI double-negative (AV–/PI–, lower left quadrant, Q4), early apoptotic cells are AV single-positive (AV+/PI– upper left quadrant, Q1), late apoptotic cells are AV/PI double-positive (AV+/PI+, upper right quadrant, Q2), and necrotic cells are PI single-positive (AV–/PI+, lower right quadrant, Q3). The sum of early and late apoptotic cell numbers ([…] in %) is indicated in red. D-G: The workflow of the PDAC xenograft experiments in mice is depicted in D. PANC-1 cells (2 × 10^6 cells/mouse) were subcutaneously (s.c.) injected in the right flank of female athymic nude mice. Small tumor nodules appeared 6 days post-engraftment. […] Tumor volumes were measured every second day using a digital caliper. […] At the end of the 2 weeks, mice were sacrificed and tumors were dissected (F).
# (§2) For quantification of apoptosis using the CaspaseGlo 3/7 assay (Promega), PANC-1 and PaTu8988T cells were seeded in triplicates in white 96-well plate (5 × 10^3 cells/well) and cultured in the absence or presence of compounds. After 2 h, as soon as the cells had settled, gemcitabine was added or not, and cells were incubated for another 72 h. Subsequently, the caspase3/7 activity was measured using the luminescence-based CaspaseGLO-3/7 assay (Promega). To this end, the CaspaseGlo reagent was subsequently added to the cells at a 1:1 ratio and incubated at room temperature and under agitation for 30 min protected from light. The luminescence measurements were carried out using a microplate reader (Mithras LB 940, Berthold).
# PaTu8988T cells = assay: CaspaseGlo 3/7 apoptosis assay, PaTu8988T; format: cell-based, human; settings: 72 h
# Description: as §1, §2
# [1] = system: ADMA in PANC-1 xenograft tissues; assay: Immunofluorescence staining of ADMA in xenograft tumor tissue; format: in vivo, mouse; settings: after 2 weeks treatment, compared to PBS or gemcitabine alone
# Description: 6 Effect of small-molecule modulators on gemcitabine-induced apoptosis and tumor growth of PDAC cells. […] After 2 h, gemcitabine (GEM) was added at increasing concentrations (10 and 25 nM) or not (−) for another incubation of 72 h. Subsequently, the luminescence-based caspase3/7 assay was performed. The activity of caspase 3/7 in treated cells was normalized to the activity measured in untreated cells (dark gray bar), which was set to 1 (mean SD, n = 6 for PANC-1 and n = 4 for PaTu8988T; *: p ≤ 0.05, **: p ≤ 0.01, ***: p ≤ 0.001, using the student t-test). […] After 24 h, gemcitabine (GEM, 1 μM) was added (+) or not (−) for another incubation of 48 h. Subsequently, the apoptotic cell fraction was quantified in % by flow cytometry using FITC-labeled Annexin V (AV) and propidium iodide (PI) staining (in B: mean ± SD, n = 6 for PANC-1 and n = 5 for PaTu8988T; **: p ≤ 0.01, ***: p ≤ 0.001, ****: p ≤ 0.0001, using the student t-test). […] Tumor volumes were measured every second day using a digital caliper. […]
# For antigen retrieval, tissue sections were steam-heated for 35 min in citrate buffer (pH 6.0), cooled down to room temperature, and then washed in PBS. […] Fluorescence images were acquired using the Confocal Laser Scanning microscope Leica SP8i and analyzed with IMARIS 9.9.0 (Bitplane-Oxford Instruments, Abingdon, GB) using the Cell module.
# [2] = TR-07 10 μM or gemcitabine 10 and 25 nM
# [3] = compound 10 μM, after 2 h gemcitabine 10 and 25 nM
smiles,measurement,setting,value
"CN(C)Cc1cccc(CN/C=C2\C(=O)NC(=O)c3ccccc32)c1.Cl [TR-07, (Z)-1-[3-({[(1,3-Dioxo-2,3-dihydroisoquinolin-4(1H)-lidene)methyl]amino}methyl)phenyl]-N,N-dimethylmethanaminium chloride]","apoptosis, caspase 3/7 activity, single agent",PANC-1 cells; [2],did not significantly induce apoptosis
same,"gemcitabine-induced apoptosis, caspase 3/7 activity, co-treatment",PANC-1 cells; [3],further significantly enhanced
same,"apoptosis, caspase 3/7 activity, single agent",PaTu8988T cells; [2],did not significantly induce apoptosis
same,"gemcitabine-induced apoptosis, caspase 3/7 activity, co-treatment",PaTu8988T cells; [3],further significantly enhanced
same,mean intensity ADMA levels in PANC-1 xenografts (IF staining),[1],elevated mean intensity ADMA levels

# From PMC13576449, “Small-Molecule Activators of PRMT1: Discovery, SAR Analyses, and Proapoptotic Effects in Pancreatic Cancer Cells” (Journal of Medicinal Chemistry, 2026)
